Data: patent US20050004007A1, “Promotion of adoptosis in cancer cells by co-administration of cyclin dependent kinase inhibitiors and cellular differentiation agents” (priority 2000, published 2005)

Assays:
Format in all cases: cell-based, human
[1] = tested on: p21WAF1/CIP1; test: Western analysis of p21WAF1/CIP1 expression in U937 cells; conditions: for p21WAF1/CIP1 levels: 1 mM SB, 100 nM FP, 1-24 hr
Method: Western analysis. Equal quantities of protein (15 μg/condition for MAPK, 40 μg/condition for cytochrome c, or 25 μg/condition) were separated by SDS-PAGE [underphosporylated pRB (7.5%), poly(ADP-ribose)polymerase or PARP (8.0%), p44/p42 MAPK (10%), p21, p27, procaspase 3 (12%), and cytochrome c (15%)] and electroblotted onto nitrocellulose. Western analysis of p44/p42 MAPK protein was performed according to the manufacturer's instructions (New England Biolabs); otherwise, studies were performed as previously described [Wang et al, 1998]. Briefly, U937 cells (5×10^6) were pelleted by centrifugation, resuspended in 50 μl PBS, lysed by the addition of 2× Laemmli buffer and boiled for 5 min. Proteins were quantified with Coomassie protein assay reagent. Blots were blocked in PBS-T/5% milk, washed twice with PBS-T, and incubated overnight at 4° C. with the appropriate primary antibody. The blots were washed with PBS-T and incubated with a horseradish-peroxidase conjugated secondary antibody diluted appropriately in PBS-T/5% mill. Following incubation, blots were developed by enhanced chemiluminescence exposure to Kodak X-OMAT film (Eastman Kodak Co., Rochester, N.Y.) and reprobed with antibodies directed against actin to control for equal loading of protein.
Alternatively, whole cell-pellets were washed twice in PBS, resuspended in PBS, and lysed by the addition of I volume of loading buffer. Lysates were boiled for 10 min, centrifuged at 12,800 g for 5 min and quantified using Coomassie protein assay reagent (Pierce, Rockfold, Ill.). 25 μg of total proteins per point were separated by SDS-PAGE and electro-blotted to nitrocellulose. The blots were blocked in 5% non-fat milk in PBS-T and probed for 1 h with the appropriate dilution of primary antibody. Blots were washed 3×10 min in PBS-T and then incubated with a 1:2000 dilution of peroxidase-conjugated secondary antibody for 1 h at room temperature. Blots were again washed 3×10 min in PBS-T and then developed by enhanced chemiluminesence. Where indicated, blots were stripped and re-probed with antibodies directed against actin.
Primary antibodies for both p21^WAF1/CIP1 and p27^KIP1 (Transduction Laboratories, Lexington, Ky.) were used in a 1:1000 dilution; PARP (1:1000; Oncogene Research Products, Cambridge, Mass.); pro-caspase 3 (1:1000; Transduction Laboratories); cytochrome c (1:2000; Pharmingen); bcl-2 (1:2000; DAKO, Denmark); bax (1:1000; Santa Cruz Biotechnology, Inc., Santa Cruz, Calif.); bid (1:1000; Cell Signaling, Beverly, Mass.); XIAP (1:1000; Cell Signaling); Mcl-1 (1:1000; Pharmingen); bak (1:1000; Calbiochem); c-Myc (1:1000; Pharmingen, San Diego, Calif.); actin (1:2000; Sigma Chemicals, St. Louis, Mo.); cyclins-D1, -A and -E (1:1000; Pharmingen); pRb, underP-pRb, pRb-CDK2 and pRb-CDK4 (all 1:1000; Pharmingen); Ac-H3 and Ac-H4 (both 1:1000; Upstate Biotechnology, Lake Placid, N.Y.); E2F-1 (Upstate Biotechnology). Secondary antibodies conjugated to horseradish peroxidase were obtained from Kirkegaard and Perry Laboratories, Inc. (Gaithersburg, Md.). Coomassie protein assay reagent was purchased from Pierce (Rockford, Ill.), and an enhanced chemiluminescence kit was obtained from New England Nuclear (Boston, Mass.). The pan-caspase inhibitor BOC-D-fmk and the caspase 8 inhibitor Z-IETD-fmk were purchased from Enzyme System Products (Livermore, Calif.) All other chemicals or reagents were purchased from Sigma.

[2] = tested on: U937 cells; test: cytochrome c release into the cytosol; conditions: FP 100 nM; for cytochrome c release: SB 1 mM, alone from 1 hr, both drugs ≧6 hr
Method: Cytochrome c release. The assay for cytochrome c release was performed as previously described by Single et al. [1998] with modifications. At designated times following drug treatment, 4×10^6 cells were washed with PBS and resuspended in 50 μl of assay buffer (75 mM NaCl, 1 mM NaH2P0^4, 8 mM Na2HP0^4, 1 mM EDTA, 250 mM sucrose) containing digitonin (700 μg/ml). Three minutes following addition of digitonin assay buffer, cells were pelleted by centrifugation. The supernatants were transferred to tubes containing 2× Laemmli buffer (50 μl) and boiled for 5 minutes. Proteins were separated by SDS-PAGE as described above.
Analysis of cytosolic cytochrome c. A previously described technique was employed.^32 After treatment, cells (5×10^7/condition) were harvested by centrifugation at 600 g for 10 min at 4° C. The S-100, or cytosolic fraction, was prepared as described with minor modifications. Cell pellets were washed once with ice-cold phosphate-buffered saline and resuspended in five volumes of buffer A (20 mM Hepes-KOH, pH 7.5, 10 mM KCl, 1.5 mM MgCl2, 1 mM sodium EDTA, 1 mM sodium EGTA, 1 mM dithiothreitol, 0.1 mM phenylmethlysufonyl fluoride, and 250 mM sucrose; all Sigma. After chilling for 30 min on ice, the cells were disrupted by 15 strokes of a Potter-Elvehjem (PTFE-pestle) homogenizer. The homogenate was then centrifuged twice to remove unbroken cells and nuclei (3000 g for 10 min at 4° C.). The resulting supernatant was further centrifuged at 100,000 g for 1 h at 4° C., and the supernatants, designated as S-100 fractions, were immediately subjected to Western analysis as described above. For each condition, 25 μg of the S-100 fraction was loaded on the gel, and probed with the corresponding antibody.

[3] = tested on: U937 cells; test: loss of mitochondrial membrane potential (DiOC6 uptake, flow cytometry); conditions: for percentage of cells displaying a loss of Δψm: 100 nM FP, 1 mM SB, 12 or 24 hr
Method: Assessment of mitochondrial membrane potential. At designated times, 1 ml aliquots of cells (2×10^5) were harvested and incubated with 40 nM DiOC6 for 15 minutes at 25° C. as previously described [Zamzami et al 1995]or at 37° C. Samples were analyzed using a Becton Dickinson FACScan flow cytometer (excitation λ=488 nm; emission λ=525 nm). […] Data acquisition and analysis was performed using […] Software (Becton Dickinson, Mansfield, Mass.).

| Compound | p21WAF1/CIP1 levels [1] | cytochrome c release [2] | percentage of cells displaying a loss of Δψm [3] | p21WAF1/CIP1 expression ([1]; 10 nM PMA, FP 50-100 nM, 24 h) | release of cytochrome c into the cytosol ([2]; PMA 10 nM, 6 h) | loss of mitochondrial membrane potential (Δψm) ([3]; 1 and 1.5 μM SAHA and FP (100 nM)) | loss of mitochondrial membrane potential (Δψm) ([3]; FP 100 nM, PMA 10 nM, 4-8 h exposure) |
| --- | --- | --- | --- | --- | --- | --- | --- |
| CCCC(=O)[O-].[Na+] [SB, sodium butyrate] | time-dependent increase | increased modestly | no effect | – | – | – | – |
| CN1CC[C@H](c2c(O)cc(O)c3c(=O)cc(-c4ccccc4Cl)oc23)[C@H](O)C1 [FP, Flavopiridol] | did not modify | increased modestly | modest increase | no effect | some effect | no effect | reductions were noted |
